From PubChem BioAssay AID248 (DTP/NCI, 2004)
Several values for one entry are separate records, joined by “and”; a condition that tells them apart may be missing. Identical values can stand only once. Inconclusive results and toxic doses are left out. No stated cut-off is given here; in the data, active means T/C of 150% or more; inactive means T/C below 125%.

Test system: L1210 leukemia ip in BDF1 mice, survival T/C
Assay: NCI In Vivo Anticancer Drug Screen. Data for tumor model L1210 Leukemia (intraperitoneal) in B6D2F1 (BDF1) mice
Settings: endpoint: mean survival time, higher = longer survival
Procedure, shortened: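 Ratio derived from survival: compound-dosed mice over vehicle-dosed mice, all bearing a transplantable tumor.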

[1] = dose: 100.0 mg/kg/injection, schedule: Q01DX009 (ip), vehicle: Klucel (hydroxypropylcellulose) (HPC)
[2] = dose: 100.0 mg/kg/injection, schedule: Q04DX003 (ip), vehicle: Klucel (hydroxypropylcellulose) (HPC)
[3] = dose: 200.0 mg/kg/injection, schedule: Q04DX003 (ip), vehicle: Klucel (hydroxypropylcellulose) (HPC)
[4] = dose: 400.0 mg/kg/injection, schedule: Q04DX003 (ip), vehicle: Klucel (hydroxypropylcellulose) (HPC)
[5] = dose: 100.0 mg/kg/injection, schedule: Q04DX003 (ip), vehicle: saline
[6] = dose: 200.0 mg/kg/injection, schedule: Q04DX003 (ip), vehicle: saline
[7] = dose: 400.0 mg/kg/injection, schedule: Q04DX003 (ip), vehicle: saline
[8] = dose: 100.0 mg/kg/injection, schedule: Q01DX009 (ip), vehicle: saline with Tween-80
[9] = dose: 200.0 mg/kg/injection, schedule: Q01DX009 (ip), vehicle: saline with Tween-80
[10] = dose: 25.0 mg/kg/injection, schedule: Q04DX002 (ip), vehicle: Klucel (hydroxypropylcellulose) (HPC)
[11] = dose: 50.0 mg/kg/injection, schedule: Q04DX002 (ip), vehicle: Klucel (hydroxypropylcellulose) (HPC)
[12] = dose: 100.0 mg/kg/injection, schedule: Q04DX002 (ip), vehicle: Klucel (hydroxypropylcellulose) (HPC)
[13] = dose: 200.0 mg/kg/injection, schedule: Q01DX009 (ip), vehicle: Klucel (hydroxypropylcellulose) (HPC)
[14] = dose: 400.0 mg/kg/injection, schedule: Q01DX009 (ip), vehicle: Klucel (hydroxypropylcellulose) (HPC)

Measured: T/C

O=C1c2cccc3c(Br)ccc(c23)C(=O)N1CCCN1CCOCC1
inactive: dose: 25.0 mg/kg/injection, schedule: Q01DX009 (ip), vehicle: Klucel (hydroxypropylcellulose) (HPC) 97 % of control | dose: 50.0 mg/kg/injection, schedule: Q01DX009 (ip), vehicle: Klucel (hydroxypropylcellulose) (HPC) 90 % of control | [1] 102 % of control

COC(C#N)C(=N)CC#N (stereo unspecified)
inactive: dose: 9.5 mg/kg/injection, schedule: Q01DX001 (ip), vehicle: saline 107 % of control | dose: 19.0 mg/kg/injection, schedule: Q01DX001 (ip), vehicle: saline 101 % of control

COc1ccc(C(=O)N(C)c2ccccc2)cc1
inactive: [2] 94 % of control | [3] 89 % of control | [4] 93 % of control

CC(CO)NC(=O)c1ccc(N)cc1 (stereo unspecified)
inactive: [5] 107 % of control | [6] 100 % of control | [7] 102 % of control

NC(=O)c1ccc(F)cc1
inactive: dose: 100.0 mg/kg/injection, schedule: Q01DX001 (ip), vehicle: carboxymethylcellulose (CMC) 95 % of control | dose: 200.0 mg/kg/injection, schedule: Q01DX001 (ip), vehicle: carboxymethylcellulose (CMC) 104 % of control | dose: 400.0 mg/kg/injection, schedule: Q01DX001 (ip), vehicle: carboxymethylcellulose (CMC) 98 % of control

CCC1C(=O)OCc2c1cc(C(=O)OC)n(C)c2=O (stereo unspecified)
inactive: dose: 25.0 mg/kg/injection, schedule: Q01DX001 (ip), vehicle: other 111 % of control | dose: 50.0 mg/kg/injection, schedule: Q01DX001 (ip), vehicle: other 108 % of control | dose: 100.0 mg/kg/injection, schedule: Q01DX001 (ip), vehicle: other 93 % of control | dose: 200.0 mg/kg/injection, schedule: Q01DX001 (ip), vehicle: other 93 % of control

S=c1nc(-c2ccccc2)c(-c2ccccc2)n[nH]1
inactive: [5] 100 % of control | [6] 98 % of control | [7] 98 % of control

COc1cccc(CNc2cccc(Cl)c2Cl)c1OC
inactive: [8] 103 % of control | dose: 100.0 mg/kg/injection, schedule: Q04DX003 (ip), vehicle: other 102 % of control | [9] 94 % of control | dose: 200.0 mg/kg/injection, schedule: Q04DX003 (ip), vehicle: other 96 % of control | dose: 400.0 mg/kg/injection, schedule: Q01DX009 (ip), vehicle: saline with Tween-80 109 % of control | dose: 400.0 mg/kg/injection, schedule: Q04DX003 (ip), vehicle: other 113 % of control

Nc1nc(=S)c2ncn(C3OCC(O)C(O)C3O)c2[nH]1 (stereo unspecified)
inactive: dose: 5.0 mg/kg/injection, schedule: Q01DX001 (ip), vehicle: saline 101 % of control | dose: 10.0 mg/kg/injection, schedule: Q01DX001 (ip), vehicle: saline 95 % of control | dose: 12.5 mg/kg/injection, schedule: Q01DX009 (ip), vehicle: saline 98 % of control | dose: 20.0 mg/kg/injection, schedule: Q01DX001 (ip), vehicle: saline 96 % of control | dose: 25.0 mg/kg/injection, schedule: Q01DX009 (ip), vehicle: saline 97 % of control | dose: 40.0 mg/kg/injection, schedule: Q01DX001 (ip), vehicle: saline 101 % of control | dose: 50.0 mg/kg/injection, schedule: Q01DX009 (ip), vehicle: saline 98 % of control | dose: 80.0 mg/kg/injection, schedule: Q01DX001 (ip), vehicle: saline 96 % of control | dose: 100.0 mg/kg/injection, schedule: Q01DX001 (ip), vehicle: saline 98 % of control | dose: 100.0 mg/kg/injection, schedule: Q01DX009 (ip), vehicle: saline 101 % of control | dose: 200.0 mg/kg/injection, schedule: Q01DX001 (ip), vehicle: saline 102 % of control | dose: 400.0 mg/kg/injection, schedule: Q01DX001 (ip), vehicle: saline 102 % of control

CC(=O)OC1CCC2(C)C(CCC3C2CCC2(C)C3C(c3ccccc3Cl)C3C=NN(c4ccccc4)C32C(=O)c2ccccc2)C1 (stereo unspecified)
inactive: [10] 97 % of control | [11] 94 % of control | [12] 94 % of control

O=C(Nc1ccc(CC2=NCCN2)cc1)c1cccc(C(=O)Nc2ccc(CC3=NCCN3)cc2)c1
inactive: dose: 6.5 mg/kg/injection, schedule: Q01DX Z (ip), vehicle: carboxymethylcellulose (CMC) 100 % of control | dose: 9.7 mg/kg/injection, schedule: Q01DX Z (ip), vehicle: carboxymethylcellulose (CMC) 93 % of control | dose: 14.6 mg/kg/injection, schedule: Q01DX Z (ip), vehicle: carboxymethylcellulose (CMC) 94 % of control | dose: 22.0 mg/kg/injection, schedule: Q01DX Z (ip), vehicle: carboxymethylcellulose (CMC) 94 % of control | dose: 22.2 mg/kg/injection, schedule: Q01DX Z (ip), vehicle: carboxymethylcellulose (CMC) 95 % of control

Cc1cnc(NN)nc1-c1ccccc1O
inactive: [10] 95 % of control | [11] 97 % of control | [12] 105 % of control and 110 % of control

COC1OC(COC(=O)OCC(Cl)(Cl)Cl)C(OC(=O)OCC(Cl)(Cl)Cl)C(OC(=O)OCC(Cl)(Cl)Cl)C1OC(=O)OCC(Cl)(Cl)Cl (stereo unspecified)
inactive: dose: 75.0 mg/kg/injection, schedule: Q01DX001 (ip), vehicle: other 90 % of control | dose: 150.0 mg/kg/injection, schedule: Q01DX001 (ip), vehicle: other 92 % of control | dose: 300.0 mg/kg/injection, schedule: Q01DX001 (ip), vehicle: other 90 % of control

CC(C)(C)OC(=O)NN=C1CCC(C(C)(C)C)CC1 (stereo unspecified)
inactive: dose: 100.0 mg/kg/injection, schedule: Q04DX003 (ip), vehicle: acetone 98 % of control | dose: 200.0 mg/kg/injection, schedule: Q04DX003 (ip), vehicle: acetone 96 % of control | dose: 400.0 mg/kg/injection, schedule: Q04DX003 (ip), vehicle: acetone 93 % of control

C=CCc1cn(C2OC(COC(=O)c3ccccc3)C(OC(=O)c3ccccc3)C2OC(=O)c2ccccc2)c(=S)[nH]c1=O (stereo unspecified)
inactive: dose: 100.0 mg/kg/injection, schedule: Q01DX005 (ip), vehicle: saline 95 % of control | dose: 200.0 mg/kg/injection, schedule: Q01DX005 (ip), vehicle: saline 98 % of control

CCCn1c2c(c(=O)n(CC)c1=O)S(=O)C(OCC)C(=O)N2 (stereo unspecified)
inactive: dose: 78.0 mg/kg/injection, schedule: Q01DX Z (ip), vehicle: other 92 % of control | dose: 116.0 mg/kg/injection, schedule: Q01DX Z (ip), vehicle: other 97 % of control and 104 % of control | dose: 175.0 mg/kg/injection, schedule: Q01DX Z (ip), vehicle: other 98 % of control and 87 % of control | dose: 262.5 mg/kg/injection, schedule: Q01DX Z (ip), vehicle: other 93 % of control and 103 % of control

O=C(N/N=C/c1ccc(Cl)cc1)C(O)c1ccccc1 (stereo unspecified)
inactive: [1] 87 % of control | [13] 87 % of control | [14] 89 % of control

CCOP(=O)(OCC)Oc1c(Cl)c(Cl)c(O)c(Cl)c1Cl
inactive: dose: 100.0 mg/kg/injection, schedule: Q04DX002 (ip), vehicle: saline with Tween-80 91 % of control | dose: 200.0 mg/kg/injection, schedule: Q04DX002 (ip), vehicle: saline with Tween-80 100 % of control

Cc1cccc(NC(=O)NC(C)C)c1C
inactive: [1] 109 % of control | [2] 102 % of control | [13] 109 % of control | [3] 96 % of control | [14] 102 % of control | [4] 98 % of control

CCCCCCNC(N)=O
inactive: dose: 50.0 mg/kg/injection, schedule: Q01DX009 (ip), vehicle: saline with Tween-80 93 % of control and 100 % of control | [8] 100 % of control and 101 % of control | [9] 100 % of control and 101 % of control
